# From patent US20080139617A1 (priority 2006, published 2008)
# Target: T1, human V1a receptor (Homo sapiens, UniProt P37288)
# T1 construct: expressed in transfected cells; host or cells: HEK293 cells, transiently transfected; membrane preparation
# Assay: human V1a receptor binding (3H-Vasopressin SPA, membranes of transfected HEK293 cells)
# Settings: displacement of 3H-Vasopressin; Ki calculated from IC50 using the Cheng-Prussoff equation
# Method: The human V1a receptor was cloned by RT-PCR from total human liver RNA. The coding sequence was subcloned in an expression vector after sequencing to confirm the identity of the amplified sequence. […] Cell membranes were prepared from HEK293 cells transiently transfected with the expression vector and grown in 20 liter fermenters with the following protocol.
# 50 g of cells were resuspended in 30 ml freshly prepared ice cold Lysis buffer (50 mM HEPES, 1 mM EDTA, 10 mM MgCl2 adjusted to pH=7.4+complete cocktail of protease inhibitor (Roche Diagnostics)), homogenized with Polytron for 1 min, and sonicated on ice for 2×2 minutes at 80% intensity (Vibracell sonicator). The preparation was centrifuged 20 min at 500 g at 4° C., the pellet was discarded, and the supernatant centrifuged 1 hour at 43'000 g at 4° C. (19'000 rpm). The pellet was resuspended in 12.5 ml Lysis buffer+12.5 ml Sucrose 20% and homogenized using a Polytron for 1-2 min. The protein concentration was determined by the Bradford method and aliquots were stored at −80° C. until use. For binding studies, 60 mg Yttrium silicate SPA beads (Amersham) were mixed with an aliquot of membrane in binding buffer (50 mM Tris, 120 mM NaCl, 5 mM KCl, 2 mM CaCl2, 10 mM MgCl2) for 15 minutes with mixing. 50 ul of bead/membrane mixture was then added to each well of a 96 well plate, followed by 50 ul of 4 nM 3H-Vasopressin (American Radiolabeled Chemicals). For total binding measurement 100 ul of binding buffer were added to the respective wells, for non-specific binding 100 ul of 8.4 mM cold vasopressin were added, and for compound testing 100 ul of a serial dilution of each compound in 2% DMSO were added. The plate was incubated Ih at room temperature, centrifuged 1 min at 1000 g and counted on a Packard Top-Count. Non-specific binding counts were subtracted from each well and data was normalized to the maximum specific binding set at 100%. To calculate an IC 50, the curve was fitted using a non-linear regression model (XLfit) and the Ki was calculated using the Cheng-Prussoff equation.
# T1 sequence (P37288 whole entry): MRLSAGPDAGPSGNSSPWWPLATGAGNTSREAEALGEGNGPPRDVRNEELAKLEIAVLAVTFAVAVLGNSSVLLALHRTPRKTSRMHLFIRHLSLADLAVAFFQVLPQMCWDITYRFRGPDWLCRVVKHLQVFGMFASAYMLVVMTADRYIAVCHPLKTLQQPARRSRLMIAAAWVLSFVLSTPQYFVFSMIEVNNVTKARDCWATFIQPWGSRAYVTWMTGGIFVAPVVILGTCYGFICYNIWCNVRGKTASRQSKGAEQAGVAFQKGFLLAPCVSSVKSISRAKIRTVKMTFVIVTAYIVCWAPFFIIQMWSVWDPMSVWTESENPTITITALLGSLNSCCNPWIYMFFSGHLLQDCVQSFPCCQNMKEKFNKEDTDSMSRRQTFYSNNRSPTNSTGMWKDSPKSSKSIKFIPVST
row,SMILES,Ki [nM]
1,"O=C(c1cc2cccc(OCc3ccccc3)c2[nH]1)N1CCC(n2c(=O)[nH]c3ccccc32)CC1 [Example 37, 1-[1-(7-Benzyloxy-1H-indole-2-carbonyl)-piperidin-4-yl]-1,3-dihydro-benzoimidazol-2-one]",21.9
2,"N#CCn1c(C(=O)N2CCC(n3c(=O)[nH]c4ccccc43)CC2)cc2cc(Cl)ccc21 [Example 45, {5-Chloro-2-[4-(2-oxo-2,3-dihydro-benzoimidazol-1-yl)-piperidine-1-carbonyl]-indol-1-yl}-acetonitrile]",32
3,"CCOC(=O)Cc1c(C(=O)N2CCC(n3c(=O)[nH]c4ccccc43)CC2)[nH]c2ccccc12 [Example 14, {2-[4-(2-Oxo-2,3-dihydro-benzoimidazol-1-yl)-piperidine-1-carbonyl]-1H-indol-3-yl}-acetic acid ethyl ester]",41.7
4,"COc1ccc2[nH]c(C(=O)N3CCC(n4c(=O)[nH]c5ccccc54)CC3)c(NC(=O)c3ccccc3[N+](=O)[O-])c2c1 [Example 10, N-{5-Methoxy-2-[4-(2-oxo-2,3-dihydro-benzoimidazol-1-yl)-piperidine-1-carbonyl]-1H-indol-3-yl}-2-nitro-benzamide]",20
5,"N#CCn1c(C(=O)N2CCC(n3c(=O)[nH]c4ccccc43)CC2)cc2cc(Br)ccc21 [Example 3, {5-Bromo-2-[4-(2-oxo-2,3-dihydro-benzoimidazol-1-yl)-piperidine-1-carbonyl]-indol-1-yl}-acetonitrile]",12
6,"O=C(c1cc2cc(Cl)ccc2[nH]1)N1CCC(N2C(=O)Cc3ccccc32)CC1 [Example 47, 1-[1-(5-Chloro-1H-indole-2-carbonyl)-piperidin-4-yl]-1,3-dihydro-indol-2-one]",64.6
7,Cc1ccc2[nH]c(C(=O)N3CCC(n4c(=O)[nH]c5ccccc54)CC3)c(NC(=O)c3ccc(F)cc3)c2c1 [Example 11],39.8
8,"O=C(c1cc2cc(Cl)ccc2[nH]1)N1CCC(n2nnc3ccccc32)CC1 [Example 48, (4-Benzotriazol-1-yl-piperidin-1-yl)-(5-chloro-1H-indol-2-yl)-methanone]",385
9,"N#CCc1cc(Cl)cc2cc(C(=O)N3CCC(n4c(=O)[nH]c5ccccc54)CC3)[nH]c12 [Example 46, {5-Chloro-2-[4-(2-oxo-2,3-dihydro-benzoimidazol-1-yl)-piperidine-1-carbonyl]-1H-indol-7-yl}-acetonitrile]",35.5
